Each block holds one substance with its values, some of them ahead of it. No end group written: not given here.
Columns and labels:
PKC = PKC kinase activity in human adipocytes; format: cell-based; conditions: for PKC kinase activity at 25 μg peptide per well: 25 μg per well, 30 minutes, positive control insulin
Protocol: FIG. 1. PKC kinase activity in human adipocytes induced by peptides from alpha PKC. Primary human adipocytes were cultured overnight without insulin and on the next day, the different conditions were used with for each peptide 25 μg of peptide ECTMVEKKVLALL (SEQ ID NO: 50) or 25 ug of peptide SVEWWAYGLLYEMLA (SEQ ID NO: 51) was added to each well and incubated for 30 minutes prior to measuring the PKC activity. Vehicle which is saline solution was the negative control and the positive control used was insulin at […].
FIG. 3. PATAS in vitro dose response to trigger PKC activity in the human adipocytes. PATAS in vitro dose response to trigger PKC activity in the human adipocytes after a 30 minutes incubation of human primary adipocyte with PATAS added to the culture medium. n=5 per group and PATAS quantities are expressed as μg per well.
Two other peptides from PKC alpha, namely ECTMVEKKVLALL (SEQ ID NO: 50) and SVEWWAYGLLYEMLA (SEQ ID NO: 51) have also been tested for their effect on PKC kinase activity.
For PKC kinase activity tests, we used ready to use mature primary human adipocytes originating from omental adipose tissue were purchased from Zenbio in either a 96-well or a 6-well plate format (Catalog #: OA-1096-3 or OA-1006-3). The PKC kinase activity Assay kit (Catalog #: 139437) and procedures were used according to manufacturer's protocol.

[1] = tested on: DIO glucose intolerant male mice; experiment: Glucose tolerance test (ipGTT) in DIO glucose intolerant male mice; format: in vivo; conditions: single dose 25 micrograms per mouse, ipGTT at day 6, high fat/high glucose diet
Protocol: (FIG. 5A) Glucose tolerance: Mice were injected with either vehicle (saline solution), or vehicle+PATAD 417 or vehicle+ADPIF (CPC peptide A-MRO) at day 0. 6 days later (D6) the mice were fasted for 4 hours and at 0 minute received a […] glucose injection to perform the ipGTT. Glucose levels were measured from tail blood every 30 minutes. Besides the control mice which were fed on chow diet (CTL Chow diet), all the other mice were fed on a high fat/high glucose diet.
Mice were injected with a single dose (25 micrograms per mouse) of either scramble peptide or PATAD or ADPIF/PATAS. These are results obtained from series of glucose tolerance test (ipGTT) in DIO glucose intolerant male mice (FIGS. 5A and B).
At day 0: all mice were fasted for 4 hours in the morning. At 1:00 p.m., control mice received one injection of (body weight in grams)×10 […] of 22% glucose solution ([…] injection). Treated mice were injected with either 25 ug (2.5 uL of mother solution) of tested peptide dissolved in (body weight in grams)×10 of the 22% glucose solution. Blood glucose levels were measured from tail vein blood at every 30 minutes intervals and plotted to determine the effect of the different treatments on the area under the curve.

db/db male mice = experiment: ipGTT in db/db (BKS) diabetic mice; format: in vivo; conditions: 2 mg/kg BW subcutaneous, ipGTT day 4 post-injection, 6-week-old db/db mice on chow diet
Protocol: (FIG. 6A) Blood glucose excursion curve during ipGTT on day 4 post-PATAS subcutaneous injection (2 mg/kg BW PATAS dosing) in 6-week-old db/db male mice on chow diet Post 8 hours fasting. Glucose bolus (2 g/kg body weight) administered […] at T=Omin and the associated AUC histogram (n=10 mice per group Significance was set at *p-value≤0.05, **p-value≤0.01).
PATAS/ADPIF's activity was tested in db/db on the BKS genetic background, diabetic mouse models. […] The mice received a weekly injection of PATAS/ADPIF or vehicle for another 3 weeks followed by another 4 weeks without any treatment while being constantly monitored. […]
At day 0: all mice were fasted for 4 hours in the morning. […] Blood glucose levels were measured from tail vein blood at every 30 minutes intervals and plotted to determine the effect of the different treatments on the area under the curve.

[2] = tested on: primary human mature adipocytes; experiment: Glucose uptake assay in human mature adipocytes (2-DG, Abcam kit); format: cell-based; conditions: 30 minutes with 2-DG, without insulin, 2.5 μL of peptide at 10 μg/μL in 200 μL; N=8; compared with insulin
Protocol: FIG. 4: Glucose uptake in human primary mature adipocyte. N=8 per group.
Human primary preadipocyte were cultured in a 96-well plate and differentiated in mature human adipocytes. After 3 weeks of culture post adipogenesis, the adipocytes were incubated in culture medium without insulin for 2 hours. Following these 2 hours of insulin fasting, the media were changed back wither either medium without insulin (−INS) or medium with insulin (+INS) or medium with ADPIF (PATAS) for 30 minutes together with 2-DG, a glucose analogue used to determine glucose uptake in the Abcam kit. Following the manufacturer's protocol, we then measured the glucose uptake in 8 wells per condition and calculated the mean that was then plotted in the histogram with the standard error of the mean for the error bars shown in […] FIG. 4.
Human white visceral preadipocytes (Catalog #: C-12732; PromoCell) were purchased. The preadipocytes were seeded according to manufacturer's protocol and cultured in the Preadipocyte growth medium (Catalog #: C-27410; PromoCell) to confluence. Adipogenic differentiation was induced by changing the medium to the Preadipocyte Differentiation Medium (Catalog #: C-27436; PromoCell) for 2 days. After the differentiation phase, the medium was finally changed to the Adipocyte Nutrition medium (Catalog #: C-27438; PromoCell). […]

FATP2 = experiment: FATP isoform expression in subcutaneous white adipose tissue of db/db mice; format: in vivo; conditions: 4 weekly PATAS injections then 4 weeks without treatment, n=6, GAPDH reference, vs control mice
Protocol: (FIG. 6B) Following 4 weekly PATAS injections, and another 4 weeks without treatment, db/db mice sWAT. Normalized expression levels for the six FATP isoforms (FATP 1-6) in subcutaneous white adipose tissue (sWAT) were determined. n=6 per group with GAPDH as reference gene.
PATAS/ADPIF's activity was tested in db/db on the BKS genetic background, diabetic mouse models. […] The mice received a weekly injection of PATAS/ADPIF or vehicle for another 3 weeks followed by another 4 weeks without any treatment while being constantly monitored.
Total RNA was prepared from the different tissues and cells using a RiboPure™ kit (Catalog #: AM1924; Ambion) followed by a DNAse treatment with the TURBO DNA-free™ (Catalog #: AM 1907; Ambion). RNA integrity was assessed by gel electrophoresis and RNA concentration by Eppendorf Biophotometer Plus with the Hellma® Tray Cell (Catalog #: 105.810-uvs; Hellma). Reverse transcription of 1 μg total RNA to cDNA was performed using the BioRadiScript™ cDNA synthesis kit (Catalog #: 170-8891; BioRad). Real-time quantitative polymerase chain reaction amplification was performed in a BioRad CFX96 TM Real-Time System using the iQ™ SYBR® Green Supermix (Catalog #: 170-8886; BioRAd) and primer sets optimized for tested targets for SYBR Green-based real-time PCR for the real-time PCR. […]

glycated albumin = experiment: Glycated albumin in plasma in the STAM mice model (ELISA); format: in vivo; conditions: 5 weekly subcutaneous injections of 25 ug per mouse, 6 mice per group, vs vehicle
Description: FIG. 8. Effect of ADPIF on glycated albumin in plasma in the STAM mice model. Plasma of the treated mice from the Japanese STAMT model were used to measure circulating glycated albumin levels using a commercially available kit. The results are presented in this figure as the mean value of 6 mice per group presented with the standard error of the mean for the error bars.
Glycated albumin is a well-recognized and robust parameter to determine episodes of hyperglycemia in vivo. We therefore used the plasma from the STAMT mice that were treated for 5 weeks with weekly ADPIF/PATAS's injections at 25 ug each compared to control groups which were injected with saline.
For the non-obese STAM mouse model study, C57BL/6 mice (14-day-pregnant female) were obtained from Japan SLC, Inc. (Japan). All animals used in the study were housed and cared for in accordance with the Japanese Pharmacological Society Guidelines for Animal Use. The animals were maintained in a SPF facility under controlled conditions of temperature (23±2° C.), humidity (45±10%), lighting (12-hour artificial light and dark cycles; light from 8:00 to 20:00) and air exchange. The animals were housed in TPX cages (CLEA Japan) with a maximum of 3 mice per cage. Sterilized Paper-Clean (Japan SLC) was used for bedding and replaced once a week. […]

Bbs10-/- mice = experiment: ipGTT in Bbs10-/- mice (Bardet Biedl syndrome model); format: in vivo; conditions: 2 mg/kg body weight subcutaneous, 3 days post-injection
Description: FIGS. 7A-7B. PATAS is effective in improving glucose intolerance in a genetic mouse model for a rare disease associated with obesity and type 2 diabetes, the Bardet Biedl syndrome (BBS). BBS mice were on chow diet fed ad libitum. n=4 mice with a cross-over experimental set-up with ipGTT performed before injection and 3 days post-injection. Knockout mouse model for the BBS10 gene (Bbs10^−/−) were generated and spontaneously became obese as described in literature.
Knockout mouse model for the BBS10 gene (Bbs10^−/−) were generated and spontaneously became obese as described in literature.
For the obese mouse model with overt type 2 diabetes mouse, the BKS (D)-Leprdb/J, Stock No: 010803 (were purchased from the Jax Labs. Bbs10 knockout mice were generated by Institute Mouse Clinic (ICS) in Strasbourg and have been previously described in literature. All mice were on a C57/BL6 genetic background. All animals were housed in a temperature and humidity-controlled facility, with a 12 h-light/12 h-dark cycle. The BKS (D)-Leprdb/J mice were fed with chow diet (LM-485; Harlan Teklad Premier Laboratory Diets) whereas the Bbs knockout mice were fed with […] and tap water ad libitum. For ipGTT and ipITT, mice were fasted for 6 hours before start of experiment. Insulin 0.75 U/kg was injected i.v. via the tail vein. Blood glucose and samples were collected from the tail. […]

PKC kinase activity at 25 μg peptide per well (PKC): able to increase PKC kinase activity
Substance: ECTMVEKKVLALL (hydrocarbon staple; segment of kinase domain of alphaPKC) [Peptide from PKC alpha with M and A carrying the stapling]

PKC kinase activity at 25 μg peptide per well (PKC): able to increase PKC kinase activity
Substance: SVEWWAYGLLYEMLA (staple (positions not given here); not fully specified; also: hydrocarbon staple, positions not given here) [Peptide from PKC alpha with A and M carrying the stapling]

Substance: VE CTM-[2-(4-pentenyl) alanine]-EK RVL A-[2-(4-pentenyl) alanine]-L DKP PFL TQL HS [PATAD, reference compound]
area under the curve (AUC) of glucose tolerance test [1]: drop in the AUC

Substance: VECTTREKEVLASLDKAAFLTQLHS (staple (positions not given here); not fully specified (bridges); also: hydrocarbon staple via alkenyl Arg and Ser, positions not given here) [ADPIF/PATAS, Stapled peptide wherein R and S carry the stapling, being preferably 2-(7-octenyl)arginine and 2-(4-pentenyl)serine]
glucose intolerance / hyperglycemia (ipGTT) (db/db male mice): able to prevent hyperglycemia
glucose intolerance / hyperglycemia (ipGTT) (db/db male mice; listed as PATAS/ADPIF): significant improvement of the glucose intolerance
glucose uptake (glucose absorption) [2]: as effective as Insulin
Fatp2 expression levels in adipose tissue (sWAT) (FATP2): able to decrease the expression of FATP2
Fatp2 expression levels in adipose tissue (sWAT) (FATP2; listed as PATAS): specific and significant drop in Fatp2 expression levels
glycated albumin levels in plasma (glycated albumin): significant drop in glycated albumin
glycated albumin levels in plasma (glycated albumin; listed as ADPIF): significant drop in glycated albumin levels
PKC activity, dose response (PKC; 30 minutes incubation, PATAS quantities in μg per well, n=5): increasing PKC activity with increasing ADPIF/PATAS quantity
glucose tolerance (ipGTT) (Bbs10-/- mice): improved glucose tolerance
ipGTT area under the curve (AUC) (Bbs10-/- mice; before injection ~30000, n=4): ~16000 mg·min/dL
area under the curve (AUC) of glucose tolerance test [1]: more effective than PATAD to reduce the AUC
glucose intolerance (ipGTT) [1]: more active than PATAD peptide
